This note sets out measurements from a melting point compilation (Tetko et al.; mined from patent text by program, amines drawn as free bases though some values may be those of a salt).

Structures are written as SMILES.

Broadly, the melting point is the temperature, or range, at which the solid turns liquid. As to `Cc1nccn1CCC(=O)NC(C)c1ccc(Cl)cc1` (stereo unspecified), the melting point lay within 135 to 137 °C.
In turn, `CC(C)(C)c1cn(N=Cc2cccnc2)c(=O)[nH]1` showed a melting point of 255 to 256 °C.
In turn, `O=C(c1ccc(Cl)cc1)N1CCc2cc(S(=O)(=O)N3CCN(c4cccc(Cl)c4)CC3)ccc21` displayed a melting point of 191 to 192 °C.
Molecule `CCCOc1cc(-c2ccc3c(c2)C=C(C(=O)Nc2ccc(CN(C)C4CCOCC4)cc2)CCS3(=O)=O)ccc1C#N` came in with a melting point of 201 to 203 °C.
Next, `CC(=O)Nc1ccc(NCc2cnc3nc(N)nc(N)c3n2)cc1`: above 260 °C.
`COc1cc(N)c(Cl)cc1C(=O)NCC1CCN(CCCOc2ccccc2)CC1` came in with a melting point of 132 to 134 °C.
Next, `Cc1ccc2c3c(ccc2n1)OC[C@H](CN1CCCN(c2ccc4cc(C#N)ccc4n2)CC1)O3`: 80 to 85 °C; `CC[C@@H](c1ccccc1)N(Cc1ccc(C(=O)O)cc1)S(=O)(=O)c1ccc(F)c(F)c1`: 108 to 109 °C; `CCCCCCCCCCC1COC(=O)N1` (stereo unspecified): 31.5 to 32.5 °C.
Then `CC12CCC(C(=Cc3ccc(CI)cc3)C1=O)C2(C)C` (stereo unspecified), with 108 °C; and `Cc1ccc(NC(=O)c2c(Cl)cccc2Cl)c2nccc(N3CCN(C)C3=O)c12`, with 262 to 264 °C; and `CN1CCC(=C(c2ccn(C)c2)c2ncc[nH]2)CC1`, with 155 °C.
Next, `CC(C)(C)OC(=O)N1CCc2cc([N+](=O)[O-])ccc2C1`: 138 to 141 °C; `CON1C(=O)CC2(CCN(C(=O)OCCBr)CC2)C1=O`: 134 °C.
`Cn1c(=NN)sc2ccccc21` displayed a melting point of 134 °C.
Then `COc1ccc(C2C=C3CCN(Cc4ccccc4)CC3C(CO)C2CO)cc1` (stereo unspecified), with 145 to 147 °C; and `CC(C)(C(=O)c1ccc(Cl)cc1)n1ncn(-c2ccc(N3CCN(Cc4ccccc4)CC3)cc2)c1=O`, with 150 °C; and `OC(c1ccccc1)c1nnnn1Cc1ccccc1` (stereo unspecified), with 81 °C.
Then `CCc1cc2c(cc1F)c(C#N)c(-c1ccc(S(=O)(=O)N[C@@H](C)C(F)(F)F)cn1)n2-c1ncccn1`, with 195 to 198 °C.
Next, `COc1ccc(-c2c3ccc(OC)cc3cc3sc4ccccc4c23)cc1`: 158 to 159 °C; `CS(=O)c1cccc(-n2cnc(-c3ccc(F)cc3)c2-c2ccncc2)c1` (stereo unspecified): 233 to 234 °C; `O=C1Cc2c(ccc3ccccc23)C(c2ccccc2F)N1` (stereo unspecified): 259 to 261 °C.
Turning to `CCCCC(c1cccc(C(F)(F)F)c1)n1ccc2cc(-c3ccccc3-c3nn[nH]n3)ccc21` (stereo unspecified), the melting point was 75 to 80 °C.
Then `Cc1ccc2cccc(OCc3c(Cl)ccc(N(C)C(=O)CN4C(=O)c5ccccc5C4=O)c3Cl)c2n1`, with 204 °C; and `Cc1cc2c(-c3ccccc3F)c(C(=O)O)oc(=O)c2cc1C`, with 214 to 217 °C; and `Cn1cc(C(N)=O)c(Nc2ccc(Cl)c(Cl)c2)cc1=O`, with above 250 °C.
Next, `CC1(C)CCc2c(sc3cc(OS(=O)(=O)Cc4ccccc4OC(F)(F)F)ccc3c2=O)C1`: 249 °C.
`C/C(=C/C(=O)O)c1ccn(-c2c(C)cccc2C)c1` had a melting point of 78 to 80 °C.
Next, `C[C@@H](n1cnn(-c2ccc(OCC(F)(F)C(F)(F)F)cc2)c1=O)[C@@]1(c2ccc(F)cc2F)CO1`: 128 to 129 °C; `N#Cc1cc(Cl)cc2c1OC(C(F)(F)F)C(C(=O)O)=C2` (stereo unspecified): 238 to 240 °C.
Next, `Brc1ccc2nc(N3CCOCC3)nn2c1`: 136 °C; `COC(=O)CNc1ccc2c(c1)OCO2`: 105 to 106 °C; `CCCOc1ccccc1-c1nc(N)cc(=O)[nH]1`: 184 °C.
Then `CC(=O)N1CCN=C1Nc1cc(C)nn1-c1cccc(C(F)(F)F)c1`, with 173 to 175 °C.
Take `O=C1CCC(c2ccc(C(F)(F)F)cc2)=NN1`: the melting point is 177 to 178 °C.
Next, `COC(=O)CCC(=O)c1ccc(-c2ccc(Cl)cc2F)cc1`: 90.5 to 92.5 °C.
With `O=C(O)c1cncn1C(C1CCCCC1)C1CCCCC1`, the melting point is 253 °C.
Then `CN(C)C(=O)Nc1ccc2c(c1)C(CN1CCC(c3ccc(F)cc3)CC1)CC2` (stereo unspecified), with 141 to 144 °C.
With `O=C1CCC(N2Cc3c(OCc4ccc(CN5CCCC5C(F)(F)F)cc4)cccc3C2=O)C(=O)N1` (stereo unspecified), the melting point was 178 to 180 °C.
For the molecule `COc1cc2nc(N)nc(-c3ccc(O)cc3)c2cc1OC`, the melting point fell in the range of 245 to 248 °C.
Then `CCCn1c(=O)c2[nH]c(C3CCCC3)nc2n(CCc2ccc(NC(=O)C(C)C)cc2)c1=O`, with above 270 °C; and `CC(C)c1c(Sc2cc(Cl)cc(Cl)c2)nc(CO)n1C`, with 167 to 168 °C; and `COc1cc(C(C)C)c(Oc2cnc(NC(=O)CNC3CCCC3)nc2N)cc1I`, with 176 to 178 °C.
Next, `O=C(Nc1ccc(C(=O)N2C[C@@H]3CCCN3C(=S)c3ccccc32)cc1)c1ccccc1-c1ccccc1`: 234 to 236 °C.
For `COC(=O)c1cc(C)cc2c1OCc1ccccc1C2C(=O)Nc1c(C(C)C)cccc1C(C)C` (stereo unspecified), the melting point was 136 to 138 °C.
Then `O=C(Cl)c1cc(C(=O)Cl)[nH]n1`, with 89 to 91 °C; and `CCCC(CCC)(CCC)C(N)=O`, with 69 °C.
Consider `ClCCc1nnc2ccccc2c1Cl`, for which the melting point fell in the range of 81 to 82 °C.
Then `CN1CCCC1CCNc1nccc(Oc2ccc(NC(=O)c3cc(F)cc(N4CCCCC4)c3)c3ccccc23)n1` (stereo unspecified), with 112 to 114 °C; and `CCOP(=O)(Cc1ccc(NC(=O)[C@H]2Cc3cc(OC)c(OC)cc3C(=O)CS2)cc1)OCC`, with 96 to 98 °C; and `COc1c(Cl)ccc(-c2cc(N)c(Cl)c(C(=O)NOCc3cnc(Cl)s3)n2)c1F`, with 164 to 167 °C.
Next, `COc1ccc(C(NCCCc2ccccc2)c2cccc(Nc3c(N)c(=O)c3=O)c2)cc1` (stereo unspecified): 178 to 180 °C; `CCOC(=O)CCCn1c(Nc2ccc(Cl)cc2)nc2c(Cl)ccc(C(CC)CC)c21`: 149 to 150 °C; `N=C(N)c1ccc(-n2ccn(-c3ccc(C=CC(=O)O)cc3)c2=O)cc1`: above 350 °C.
Then `FC(F)(F)c1cccc2c1[nH]c1c2ccc2cc[nH]c21`, with above 250 °C; and `CCCc1nc(C#N)c(C#N)n1C(c1ccccc1)(c1ccccc1)c1ccccc1`, with 107 °C.
`CNc1nc(Cl)cc(NS(=O)(=O)c2ccc(Cl)cc2)n1` had a melting point of 196 to 198 °C.
Then `Cc1ccc(S(=O)(=O)OCC2COc3ccccc3O2)cc1` (stereo unspecified), with 79 °C; and `CCCCCCCCCCCCCCCCCCOc1cc(OCc2ccccc2)cc(C(=O)N(CC(=O)O)CC(=O)O)c1`, with 93 to 95 °C.
Next, `CC(C)Oc1ccc(C(=O)O)c(C(=O)O)c1`: 116 to 118 °C.
Next, `COc1ccc2c(ccn2S(=O)(=O)c2ccccc2)c1`: 73 to 75 °C; `CNC(=O)c1ccc(-c2ccc3cnc(Nc4ccc(N5CCC(N6CCN(C)CC6)CC5)cc4OC)nn23)cc1`: 112 to 114 °C; `Cc1ccnc2c1C(=O)CC(c1sc(Cl)cc1Cl)C2` (stereo unspecified): 109 to 111 °C.
The molecule `Cn1c(CCNS(C)(=O)=O)nnc1NCCCOc1cccc(CN2CCCCC2)c1` showed a melting point of 105 to 106 °C.
Then `CCOC(=O)C1=C(C(=O)OCC)C(c2cc(OC)c(OC)c(OC)c2)C(C(=O)OCC)=C(C)N1` (stereo unspecified), with 134 °C.
Next, `CSC(=S)C1(c2ccncc2)CCCS1` (stereo unspecified): 64 °C.
Next, `CC1(C)CCC(Cc2ccc(Cl)cc2)=CC1=O`: 87 to 90 °C; `CC(C)(C)c1cc(C2SC(CC(=O)N3CCCC3)C(=O)N2CCCCl)cc(C(C)(C)C)c1O` (stereo unspecified): 193 to 194 °C; `CC(=O)C1CCC2C3CCC4CCCCC4(C)C3CCC12C` (stereo unspecified): 84 to 90 °C.
`CCCCn1nc(C)c(CC(=O)O)c1C` came in with a melting point of 97 to 98 °C.
Next, `Cc1cccc(C=NNC(=O)c2ccc(O)cc2)c1`: 242 °C; `CCCCOCCOc1ccc(-c2ccc3c(c2)C=C(C(=O)Nc2ccc(S(=O)Cc4nncn4CCC)nc2)CCN3CC(C)C)cc1` (stereo unspecified): 135 to 138 °C.
Then `CSc1ccc(C=CC(=O)c2cccc([N+](=O)[O-])c2)cc1`, with 150 °C; and `CCCCCCCCCCCCCCC1C(=O)OC2OC3(C)CCC4C(C)CCC1C24OO3` (single isomer, unassigned; (+)), with 65 to 66 °C; and `COc1cc(Nc2c(C#N)cnc3cc(-c4ccccc4CN4CCOCC4)ccc23)c(Cl)cc1Cl`, with 107 to 109 °C.
For the molecule `Cc1c[nH]c2c([N+](=O)[O-])cccc2c1=O`, the melting point lay within 235 to 243 °C.
On to `O=C(Cc1cccc(Oc2ccccc2)c1)Nc1cc(Cl)c(Cl)cc1[N+](=O)[O-]`, for which the melting point lay within 135 to 137 °C.
Then `Cc1cc(I)ccc1NC1=CC2=NCN(C)C2=CC1(F)C(=O)NOCC(O)CO` (stereo unspecified), with 212 to 213 °C.
Next, `CCOC(=O)c1cccc(NC(=O)C(COS(C)(=O)=O)NS(=O)(=O)c2ccc(Cl)cc2)c1` (racemic): 125 to 129 °C.
On to `COc1ccc(-c2ccc(COc3cc4c(cc3CCN(CCCCC(=O)O)Cc3ccc(C(=O)O)cc3)CCCC4)cc2)cc1`, for which the melting point was above 240 °C.
Then `COC(=O)[C@H]1C[C@H](NC(=O)Nc2ccc(I)cc2)c2c(Cl)cc(Cl)cc2N1` (relative stereo), with 253 to 255 °C; and `Nc1ccc2c(c1)CNCCS2`, with 110 to 111 °C.
Regarding `CC(C)c1ccc(-c2noc3c2CCC(C(=O)O)CC3)cc1` (stereo unspecified), the melting point lay within 109 to 111 °C.
Next, `CC(=O)Nc1cccc(C#Cc2c(F)c(F)nc(F)c2F)c1`: 215 to 216 °C.
Then `CN1CCC(c2c[nH]c3ccc(OCc4ccccc4)cc23)CC1`, with 163 to 164 °C; and `COC(=O)C1CCc2onc(-c3ccc(Cl)cc3)c2CC1` (stereo unspecified), with 70 to 71 °C.
